Results from patent publication US12065442B2, “Tropomyosin receptor kinase (TRK) degradation compounds and methods of use” (Cullgen (Shanghai), Inc., priority 2018, dated 2024).
pIC50: −log10 of the molar value. “Also recorded” adds a separate entry of the source.

test system: KM12 cells; experiment: Cell viability assay (CellTiter-Glo) in KM12 cells; format: cell-based; conditions: 500 nM, 12-point 2-fold serial dilution, 3 days (FIG. 4A)

| SMILES | viability of KM12 cells |
| --- | --- |
| O=C1CCC(N2C(=O)c3cccc(NCCOCCOCCOCCC(=O)N4CCN(c5ccc(C(=O)Nc6n[nH]c7ccc(Cc8cc(F)cc(F)c8)cc67)c(NC6CCOCC6)c5)CC4)c3C2=O)C(=O)N1 (centres unmarked) [CPD-057, N-(5-(3,5-Difluorobenzyl)-1H-indazol-3-yl)-4-(4-(3-(2-(2-(2-((2-(2,6-dioxopiperidin-3-yl)-1,3-dioxoisoindolin-4-yl)amino)ethoxy)ethoxy)ethoxy)propanoyl)piperazin-1-yl)-2-((tetrahydro-2H-pyran-4-yl)amino)benzamide] | inhibited the viability; also recorded: dose-dependently suppressed viability |

same assay, conditions: Homo sapiens, 72 h; Table 2; KM12 cell viability, CellTiter-Glo, 3 days; read-out: IC50

| SMILES | pIC50 |
| --- | --- |
| Cc1ncsc1-c1ccc(CNC(=O)[C@@H]2C[C@@H](O)CN2C(=O)[C@@H](NC(=O)CCOCCC(=O)N2CCN(c3ccc(C(=O)Nc4n[nH]c5ccc(Cc6cc(F)cc(F)c6)cc45)c(NC4CCOCC4)c3)CC2)C(C)(C)C)cc1 [CPD-048, (2S,4R)-1-((S)-2-(3-(3-(4-(4-((5-(3,5-Difluorobenzyl)-1H-indazol-3-yl)carbamoyl)-3-((tetrahydro-2H-pyran-4-yl)amino)phenyl)piperazin-1-yl)-3-oxopropoxy)propanamido)-3,3-dimethylbutanoyl)-4-hydroxy-N-(4-(4-methylthiazol-5-yl)benzyl)pyrrolidine-2-carboxamide] | < 6.00 |
| O=C1CCC(N2C(=O)c3cccc(NCCCCCCC(=O)N4CCN(c5ccc(C(=O)Nc6n[nH]c7ccc(Cc8cc(F)cc(F)c8)cc67)c(NC6CCOCC6)c5)CC4)c3C2=O)C(=O)N1 (centres unmarked) [CPD-049, N-(5-(3,5-difluorobenzyl)-1H-indazol-3-yl)-4-(4-(7-((2-(2,6-dioxopiperidin-3-yl)-1,3-dioxoisoindolin-4-yl)amino)heptanoyl)piperazin-1-yl)-2-((tetrahydro-2H-pyran-4-yl)amino)benzamide] | 7.14 |
| O=C1CCC(N2C(=O)c3cccc(NCCCCC(=O)N4CCN(c5ccc(C(=O)Nc6n[nH]c7ccc(Cc8cc(F)cc(F)c8)cc67)c(NC6CCOCC6)c5)CC4)c3C2=O)C(=O)N1 (centres unmarked) [CPD-050, N-(5-(3,5-difluorobenzyl)-1H-indazol-3-yl)-4-(4-(5-((2-(2,6-dioxopiperidin-3-yl)-1,3-dioxoisoindolin-4-yl)amino)pentanoyl)piperazin-1-yl)-2-((tetrahydro-2H-pyran-4-yl)amino)benzamide] | 7.55 |
| O=C1CCC(N2C(=O)c3cccc(NCCC(=O)N4CCN(c5ccc(C(=O)Nc6n[nH]c7ccc(Cc8cc(F)cc(F)c8)cc67)c(NC6CCOCC6)c5)CC4)c3C2=O)C(=O)N1 (centres unmarked) [CPD-051, N-(5-(3,5-difluorobenzyl)-1H-indazol-3-yl)-4-(4-(3-((2-(2,6-dioxopiperidin-3-yl)-1,3-dioxoisoindolin-4-yl)amino)propanoyl)piperazin-1-yl)-2-((tetrahydro-2H-pyran-4-yl)amino)benzamide] | 7.96 |
| O=C1CCC(N2C(=O)c3cccc(NCCCCCCCC(=O)N4CCN(c5ccc(C(=O)Nc6n[nH]c7ccc(Cc8cc(F)cc(F)c8)cc67)c(NC6CCOCC6)c5)CC4)c3C2=O)C(=O)N1 (centres unmarked) [CPD-052, N-(5-(3,5-difluorobenzyl)-1H-indazol-3-yl)-4-(4-(8-((2-(2,6-dioxopiperidin-3-yl)-1,3-dioxoisoindolin-4-yl)amino)octanoyl)piperazin-1-yl)-2-((tetrahydro-2H-pyran-4-yl)amino)benzamide] | 7.22 |
| O=C1CCC(N2C(=O)c3cccc(NCCOCCOCCOCCOCCOCCC(=O)N4CCN(c5ccc(C(=O)Nc6n[nH]c7ccc(Cc8cc(F)cc(F)c8)cc67)c(NC6CCOCC6)c5)CC4)c3C2=O)C(=O)N1 (centres unmarked) [CPD-054, N-(5-(3,5-difluorobenzyl)-1H-indazol-3-yl)-4-(4-(1-((2-(2,6-dioxopiperidin-3-yl)-1,3-dioxoisoindolin-4-yl)amino)-3,6,9,12,15-pentaoxaoctadecan-18-oyl)piperazin-1-yl)-2-((tetrahydro-2H-pyran-4-yl)amino)benzamide] | 7.89 |
| O=C1CCC(N2C(=O)c3cccc(NCC(=O)N4CCN(c5ccc(C(=O)Nc6n[nH]c7ccc(Cc8cc(F)cc(F)c8)cc67)c(NC6CCOCC6)c5)CC4)c3C2=O)C(=O)N1 (centres unmarked) [CPD-055, N-(5-(3,5-difluorobenzyl)-1H-indazol-3-yl)-4-(4-((2-(2,6-dioxopiperidin-3-yl)-1,3-dioxoisoindolin-4-yl)glycyl)piperazin-1-yl)-2-((tetrahydro-2H-pyran-4-yl)amino)benzamide] | 7.89 |
| O=C1CCC(N2C(=O)c3cccc(NCCCCCC(=O)N4CCN(c5ccc(C(=O)Nc6n[nH]c7ccc(Cc8cc(F)cc(F)c8)cc67)c(NC6CCOCC6)c5)CC4)c3C2=O)C(=O)N1 (centres unmarked) [CPD-056, N-(5-(3,5-difluorobenzyl)-1H-indazol-3-yl)-4-(4-(6-((2-(2,6-dioxopiperidin-3-yl)-1,3-dioxoisoindolin-4-yl)amino)hexanoyl)piperazin-1-yl)-2-((tetrahydro-2H-pyran-4-yl)amino)benzamide] | 7.92 |
| O=C1CCC(N2C(=O)c3cccc(NCCOCCOCCOCCC(=O)N4CCN(c5ccc(C(=O)Nc6n[nH]c7ccc(Cc8cc(F)cc(F)c8)cc67)c(NC6CCOCC6)c5)CC4)c3C2=O)C(=O)N1 (centres unmarked) [CPD-057, N-(5-(3,5-Difluorobenzyl)-1H-indazol-3-yl)-4-(4-(3-(2-(2-(2-((2-(2,6-dioxopiperidin-3-yl)-1,3-dioxoisoindolin-4-yl)amino)ethoxy)ethoxy)ethoxy)propanoyl)piperazin-1-yl)-2-((tetrahydro-2H-pyran-4-yl)amino)benzamide] | 8.19 |
| Cc1ncsc1-c1ccc(CNC(=O)[C@@H]2C[C@@H](O)CN2C(=O)[C@@H](NC(=O)COCCOCCOCC(=O)N2CCN(c3ccc(C(=O)Nc4n[nH]c5ccc(Cc6cc(F)cc(F)c6)cc45)c(NC4CCOCC4)c3)CC2)C(C)(C)C)cc1 [CPD-058, (2S,4R)-1-((S)-2-(tert-butyl)-14-(4-(4-((5-(3,5-Difluorobenzyl)-1H-indazol-3-yl)carbamoyl)-3-((tetrahydro-2H-pyran-4-yl)amino)phenyl)piperazin-1-yl)-4,14-dioxo-6,9,12-trioxa-3-azatetradecanoyl)-4-hydroxy-N-(4-(4-methylthiazol-5-yl)benzyl)pyrrolidine-2-carboxamide] | < 6.00 |
| O=C(CN1CCN(c2cccc(-c3cnc4ccc(N5CCC[C@@H]5c5cccc(F)c5)nn34)n2)CC1)NCCOCCOCCOCCNc1cccc2c1C(=O)N(C1CCC(=O)NC1=O)C2=O (stereo partly drawn) [CPD-059, N-(2-(2-(2-(2-((2-(2,6-dioxopiperidin-3-yl)-1,3-dioxoisoindolin-4-yl)amino)ethoxy)ethoxy)-ethoxy)ethyl)-2-(4-(6-(6-((R)-2-(3-fluorophenyl)pyrrolidin-1-yl)imidazo[1,2-b]pyridazin-3-yl)pyridin-2-yl)piperazin-1-yl)acetamide] | 8.22 |
| Cc1ncsc1-c1ccc(CNC(=O)[C@@H]2C[C@@H](O)CN2C(=O)[C@@H](NC(=O)CCCCCCCNC(=O)CN2CCN(c3ccc(C(=O)Nc4n[nH]c5ccc(Cc6cc(F)cc(F)c6)cc45)c(NC4CCOCC4)c3)CC2)C(C)(C)C)cc1 [CPD-061, (2S,4R)-1-((S)-2-(8-(2-(4-(4-((5-(3,5-Difluorobenzyl)-1H-indazol-3-yl)carbamoyl)-3-((tetrahydro-2H-pyran-4-yl)amino)phenyl)piperazin-1-yl)acetamido)octanamido)-3,3-dimethylbutanoyl)-4-hydroxy-N-(4-(4-methylthiazol-5-yl)benzyl)pyrrolidine-2-carboxamide] | < 6.00 |
| O=C(CN1CCN(c2ccc(C(=O)Nc3n[nH]c4ccc(Cc5cc(F)cc(F)c5)cc34)c(NC3CCOCC3)c2)CC1)NCCNc1cccc2c1C(=O)N(C1CCC(=O)NC1=O)C2=O (centres unmarked) [CPD-062, N-(5-(3,5-difluorobenzyl)-1H-indazol-3-yl)-4-(4-(2-((2-((2-(2,6-dioxopiperidin-3-yl)-1,3-dioxoisoindolin-4-yl)amino)ethyl)amino)-2-oxoethyl)piperazin-1-yl)-2-((tetrahydro-2H-pyran-4-yl)amino)benzamide] | 7.54 |
| Cc1ncsc1-c1ccc(CNC(=O)[C@@H]2C[C@@H](O)CN2C(=O)[C@@H](NC(=O)CNC(=O)CN2CCN(c3ccc(C(=O)Nc4n[nH]c5ccc(Cc6cc(F)cc(F)c6)cc45)c(NC4CCOCC4)c3)CC2)C(C)(C)C)cc1 [CPD-063, (2S,4R)-1-((S)-2-(2-(2-(4-(4-((5-(3,5-Difluorobenzyl)-1H-indazol-3-yl)carbamoyl)-3-((tetrahydro-2H-pyran-4-yl)amino)phenyl)piperazin-1-yl)acetamido)acetamido)-3,3-dimethylbutanoyl)-4-hydroxy-N-(4-(4-methylthiazol-5-yl)benzyl)pyrrolidine-2-carboxamide] | < 6.00 |
| O=C(CN1CCN(c2ccc(C(=O)Nc3n[nH]c4ccc(Cc5cc(F)cc(F)c5)cc34)c(NC3CCOCC3)c2)CC1)NCCOCCOCCOCCNc1cccc2c1C(=O)N(C1CCC(=O)NC1=O)C2=O (centres unmarked) [CPD-064, N-(5-(3,5-difluorobenzyl)-1H-indazol-3-yl)-4-(4-(14-((2-(2,6-dioxopiperidin-3-yl)-1,3-dioxoisoindolin-4-yl)amino)-2-oxo-6,9,12-trioxa-3-azatetradecyl)piperazin-1-yl)-2-((tetrahydro-2H-pyran-4-yl)amino)benzamide] | 7.83 |
| O=C(CN1CCN(c2ccc(C(=O)Nc3n[nH]c4ccc(Cc5cc(F)cc(F)c5)cc34)c(NC3CCOCC3)c2)CC1)NCCOCCOCCOCCOCCOCCNc1cccc2c1C(=O)N(C1CCC(=O)NC1=O)C2=O (centres unmarked) [CPD-065, N-(5-(3,5-difluorobenzyl)-1H-indazol-3-yl)-4-(4-(20-((2-(2,6-dioxopiperidin-3-yl)-1,3-dioxoisoindolin-4-yl)amino)-2-oxo-6,9,12,15,18-pentaoxa-3-azaicosyl)piperazin-1-yl)-2-((tetrahydro-2H-pyran-4-yl)amino)benzamide] | 7.14 |

same assay, conditions: Homo sapiens, 72 h; Table 3; KM12 cell viability, CellTiter-Glo, 3 days; read-out: IC50

| SMILES | pIC50 |
| --- | --- |
| CN1CCN(c2ccc(C(=O)Nc3n[nH]c4ccc(Cc5cc(F)cc(F)c5)cc34)c(NC3CCOCC3)c2)CC1 [Entrectinib, entrectinib, reference compound] | 8.37 |
| OC1CCN(c2cc(-c3cccc(-c4cnc5ccc(N6CCC[C@@H]6c6cccc(F)c6)nn45)n3)ccn2)CC1 [GNF-8625, reference compound] | 7.33 |
| O=C(CN1CCN(c2cccc(-c3cnc4ccc(N5CCC[C@@H]5c5cccc(F)c5)nn34)n2)CC1)NCCCCCCCCNc1cccc2c1C(=O)N(C1CCC(=O)NC1=O)C2=O (stereo partly drawn) [TR-102, N-(8-((2-(2,6-dioxopiperidin-3-yl)-1,3-dioxoisoindolin-4-yl)amino)octyl)-2-(4-(6-(6-((R)-2-(3-fluorophenyl)pyrrolidin-1-yl)imidazo[1,2-b]pyridazin-3-yl)pyridin-2-yl)piperazin-1-yl)acetamide] | 7.35 |
